Each structure is given as a SMILES string.

For data set [1], the system named is heart. Kind of data set: Cardiotoxic effects (general statement of the invention). As to conditions: in vivo.
Data set [2] relates to heart. In words: Histopathological evaluation of potential cardiotoxic effect in nude mice during antitumor activity tests (MX-1 bearing). In kind it is in vivo, mouse (CD1 Nu/Nu female). To be noted: for cardiotoxicity (conclusion): antitumor protocol, equiactive doses. As for the experimental part: During an antitumor activity experiment histopathologic examination was carried out on plastic sections (blue toluidine stained) of hearts of some animals sacrificed at the end of the observation period.
In this experiment (Table 2) CD1 Nu/Nu female mice (8 animals/groups) were transplanted sc with tumor fragments of human mammary carcinoma MX-1. BBR 2778 (60 mg/kg/day) and mitoxantrone (4.5 mg/kg/day) (i.e., at their equiactive doses) were i.v. given once a week for three weeks when tumor weight reached an average of 100-200 mg; animals were sacrificed 60 days after the last treatment.
Myocardial lesions were scored according to Bertazzoli, C. et al. (1979) Cancer Treat., Rep.: 63, 1877-1883. Briefly, lesions are scored as follows:
1: sarcoplasmatic microvacuolizations and/or inclusions, and either interstitial or cellular edema;
2: as in 1 plus either sarcoplasmatic macrovacuolizations or one or more of atrophy, necrosis, fibrosis, endocardial lesions and thrombi;
0.5: less than 10 single altered myocytes in the whole heart section;
1: scattered single altered myocytes (>10);
2: scattered small groups of altered myocytes;
3: widely spread small groups of altered myocytes;
4: confluent groups of altered myocytes;
The product of severity degree (1 or 2) times the extension degree (from 0 to 5) gives the T.C.S. (total cardiotoxicity score, graded from 0 to 10) for each animal. Mean Total Score (M.T.S.) for each group is calculated from T.C.S. of all the group animals.

The subject of data set [3] is heart. In words: Single dose cardiotoxicity in i.v. treated rats (Study No. 1). As to conditions: 6 weeks; for Heart Weight (%): control 100. In kind it is in vivo, rat (S.D. Crl:CDBR, male). From the text:
(§1) In the rat (Study No. 1, Table No. 3), the respective effects on the myocardium of BBR 2778 and mitoxantrone were compared. Both drugs were i.v. administered in single equitoxic doses (LD10). In the mouse (Study No. 2, Table No. 4), the respective effects on the myocardium of BBR 2778, mitoxantrone, and doxorubicin, using multiple i.v. equiactive doses with similar activity on solid tumors, were compared. Also in the mouse, in a different study (Study No. 3, Table No. 5), the respective effect on the myocardium of i.v. BBR 2778 dose-active range on murine leukemia was compared with mitoxantrone.
(§2) Cardiac lesions in the three studies were evaluated in accordance with a qualitative/quantitative method expressly devised for anthracyclines (Bertazzoli C. et al. Cancer Treat. Rep. 63:1877-1883, 1979; Solcia E. et al. Tumori, 67:461-472, 1981).
Strain: S.D. (Crl:CDBR)
mixtoxantrone 4.9 mg/kg
(§3) heart weight and microscopic lesions
paraffin sections of heart (formalin fixed
and haematoxilineos in stained) collected 6
(§4) the product of severity degree (1 or 2)
(§5) times the extension degree (from 0 to 5)
(§6) gives the T.C.S. (Total Cardiotoxicity
(§7) Score, graded from 0 to 10) for each
(§8) animal. M.T.S. (Mean Total Score) for each
(§9) group is calculated from the T.C.S. of all

A short description of data set [4]: Cyclic voltammetry in aqueous media (redox potential). The format is physicochemical. To be noted: for E1/2 (reduction potential): room temperature, saturated calomel reference, scan rate 0.4 V/s. As for the experimental part: The anthracene 9,10-dione moiety is known to undergo redox processes. The results of cyclic voltammetry measurements in aqueous media are reported in FIG. 1 and summarized as reduction potentials in Table 1.
Cyclic voltammetry (CV) measurements were performed at room temperature using an Amel scanning potentiostat at the following settings: Initial potential -0.1 V, switching potential […], scan rate 0.4 V/s. A three electrode system was used with a reference saturated calomel electrode and a platinum wire counter electrode; a hanging mercury drop electrode (HMDE, Metrohm) was the working electrode.

A further data set relates to leukemia. Kind of data set: Previous antitumor activity studies against leukemia in CD2F1 mice. In kind it is in vivo, mouse (CD2F1). As to conditions: BBR 2778 12 mg/kg/day, mitoxantrone 3 mg/kg/day i.v.
The test system of the next data set is tumors. As to conditions: cited from earlier work; for antitumor activity: in vivo; for cardiac toxicity (background): clinical / background.
For data set [5] the following is noted: polarographic; Showalter et al 1986; cited from earlier work.
For data set [6] the following is noted: equivalent concentrations; cited from earlier work.
The next data set deals with human liver. To be noted: metabolic reduction by NADPH; cited from earlier work.
The subject of data set [7] is heart. In words: Multiple dose cardiotoxicity in i.v. treated mice (Study No. 3). In kind it is in vivo, mouse (CD1, female).
Excerpt: as §1, §2
______________________________________
mixtoxantrone 1.1, 1.8 & 2.5
Treatment: twice a week for 5 weeks (10 dosing)
low- and mid- dose treated groups;
twice a week for 4 weeks (7 dosing) in high-
dose treated groups. In these groups, the
administration was suspended because of the
high-dose treated group.
(§10) plastic sections of heart (formalin fixed
and blue toluidine stained) collected 78
and 139 days from the first administration
as §4, §5, §6, §7, §8, §9

A further data set deals with bone marrow. Kind of data set: Myelotoxicity study (RBC, WBC, PLT counts). The format is in vivo, mouse (CD2F1, male). To be noted: 3 mg/kg/day i.v. days 1, 4, 7; at nadir day. As for the experimental part: Using CD2F1 mice, the respective effects on the bone marrow of BBR 2778 and mitoxantrone were compared. The drugs were administered i.v. in multiple doses.
Compounds: BBR 2778 12 mg/kg/day
mixtoxantrone 3 mg/kg/day
Parameters: red blood cells (RBC), white blood cells
Equipment: Delcon Cellanalyzer CA580A

The test system of a further data set is myocardium. As to conditions: mice; cited from earlier work.
Data set [8] has as its system heart. Kind of data set: Multiple dose cardiotoxicity in i.v. treated mice (Study No. 2). In kind it is in vivo, mouse (C57BL/6NCrlBR, female).
Excerpt: as §1, §2, §3, §10
and blue toluidine stained) collected 60
and 90 days from the first treatment
as §4, §5, §6, §7, §8, §9

Setting [9] is: 65.1 mg/kg i.v. single dose (LD10).
[10] abbreviates: cyclic voltammetry, aqueous media.
[11] abbreviates: 4.9 mg/kg i.v. single dose (LD10).
Where [12] appears, read: 3 mg/kg i.v., cumulative 12 mg/kg, 60 days after first administration.
The mark [13] stands for this setting: 3 mg/kg i.v., cumulative 12 mg/kg, 90 days after first administration.
Where [14] appears, read: 4 mg/kg i.v., cumulative 16 mg/kg, 60 days after first administration.
Where [15] appears, read: 4 mg/kg i.v., cumulative 16 mg/kg, 90 days after first administration.
Setting [16] is: 6 mg/kg i.v., cumulative 24 mg/kg, 60 days after first administration.
Setting [17] is: 6 mg/kg i.v., cumulative 24 mg/kg, 90 days after first administration.
[18] abbreviates: 7.5 mg/kg i.v., cumulative 30 mg/kg, 60 days after first administration.
Setting [19] is: 7.5 mg/kg i.v., cumulative 30 mg/kg, 90 days after first administration.

On to `NCCNc1ccc(NCCN)c2c1C(=O)c1ccncc1C2=O` [6,9-bis[(2-aminoethyl)amino]benzo[g]isoquinoline-5,10-dione], for which, in the data set with heart [1], the cardiotoxic effects entry is given as “devoid of cardiotoxic effects”.

For the compound `NCCNc1ccc(NCCN)c2c1C(=O)c1ccncc1C2=O.O=C(O)/C=C\C(=O)O.O=C(O)/C=C\C(=O)O` [BBR 2778, 6,9-bis[(2-aminoethyl)amino]benzo[g]isoquinoline-5,10-dione dimaleate], the “cardiotoxicity (conclusion)” value with heart [2] is listed as “does not exert significant cardiotoxicity patterns”. Moreover, the cardiotoxic effects result in the data set with heart [1] was “devoid of cardiotoxic effects”. Further, in the data set on heart [3] (setting [9]), the “M.T.S. (Mean Total Score)” value is recorded as 0, the “No. affect. hearts / No. exam. hearts” value is given as 1/9 and the “Heart Weight (%)” value was -6%. Moreover, in data set [4] (setting [10]), the redox process entry is recorded as “reversible” and the “E1/2 (reduction potential)” value is -0.54. Further, in data set [4] (vs mitoxantrone), the “reduction potential lower than for mitoxantrone (difference)” value was 0.2-0.3 V. Moreover, the “antitumor efficacy against leukemia at the dose and schedule employed” value with leukemia is “equally effective”.

Regarding `O=C1c2ccccc2C(=O)c2c(NCCNCCO)ccc(NCCNCCO)c21` [Ametantrone], the antitumor activity result in the data set on tumors is recorded as “significant antitumor activity”. For the same compound, in [4] (setting [10]), the “E1/2 (reduction potential)” value was -0.68.

In the case of `COc1cccc2c1C(=O)c1c(O)c3c(c(O)c1C2=O)C[C@@](O)(C(C)=O)C[C@@H]3O[C@H]1C[C@H](N)[C@H](O)[C@H](C)O1` [daunorubicin], in data set [5], the E1/2 was -0.625 V. Besides, in the data set with tumors, the “cardiac toxicity (background)” value is “severe cumulative and irreversible cardiac toxicity”; the antitumor activity entry is recorded as “outstanding antitumor activity”.

`O=C1c2c(O)ccc(O)c2C(=O)c2c(NCCNCCO)ccc(NCCNCCO)c21` [Mitoxantrone]: the “No. affect. hearts / No. exam. hearts” value with heart [2] (4.5 mg/kg/day i.v. q7d × 3) is reported as 5/5; with heart [7] (2.5 mg/kg i.v., cumulative 17.5 mg/kg, 139 days after first administration) it was 0/0; with heart [3] (setting [11]), 7/7; with heart [8] (setting [12]) it was 6/6; in the data set on heart [8] (setting [13]) it was 5/5; in the data set with heart [8] (setting [14]) it was 6/6. Also, the “No. affect. hearts / No. exam. hearts” value in the data set with heart [8] (setting [15]) is 6/6. Moreover, the “cardiotoxicity (conclusion)” value with heart [2] is listed as “strongly cardiotoxic”. In addition, in data set [6], the “in vitro efficacy relative to doxorubicin” value is recorded as “higher efficacy than doxorubicin at equivalent concentrations”. Also, in data set [5], the E1/2 is listed as -0.775 V. Besides, in the data set on tumors, the “cardiac toxicity (background)” value was “diminished cardiotoxicity when compared to doxorubicin”. Moreover, in the data set on tumors (clinical studies), the “toxic side effects in clinical studies relative to doxorubicin” value is recorded as “far less toxic side effects than those resulting from doxorubicin therapy”. Also, the “microsomal O2.^- formation” value in the data set on human liver was “does not result in a significant increase in microsomal O2.^- formation”. Also, the M.T.S. in the data set on heart [7] (1.1 mg/kg i.v., cumulative 11 mg/kg, 78 days after first administration) is 4; in the data set on heart [7] (1.1 mg/kg i.v., cumulative 11 mg/kg, 139 days after first administration) it was 6; with heart [7] (1.8 mg/kg i.v., cumulative 18 mg/kg, 78 days after first administration), 6.5; with heart [7] (2.5 mg/kg i.v., cumulative 17.5 mg/kg, 78 days after first administration) it was 7.1; with heart [8] (setting [12]) it was 1.4; in the data set with heart [8] (setting [13]) it was 2.6. For the same compound, the M.T.S. in the data set on heart [8] (setting [14]) turned out to be 1.25; in the data set on heart [8] (setting [15]), 2.5. Further, the Total cardiotoxicity score in the data set with heart [7] (1.8 mg/kg, 139 days (footnote diamond-solid)) is listed as 8; in the data set on heart [7] (affected hearts marked °: 1.1 mg/kg 78 and 139 days, 1.8 and 2.5 mg/kg 78 days), 3-8. Besides, the mortality rate result in the data set on heart [7] (high dose (2.5 mg/kg/day), administration suspended after 7 dosings) is recorded as “high mortality rate”. In addition, the leukopenia vs. controls in the data set on bone marrow amounted to 70%. Besides, the “M.T.S. (Mean Total Score)” value in the data set with heart [3] (setting [11]) amounted to 6. Also, the “Heart Weight (%)” value with heart [3] (setting [11]) is on record as -44%. Further, the “focal myocardial damage (histology)” value with myocardium is listed as “high incidence of focal myocardial damage in mice similar to that observed with doxorubicin”. The “E1/2 (reduction potential)” value in data set [4] (setting [10]) was -0.74. Moreover, in the data set on leukemia, the “antitumor efficacy against leukemia at the dose and schedule employed” value is “equally effective”.

Consider `COc1cccc2c1C(=O)c1c(O)c3c(c(O)c1C2=O)C[C@@](O)(C(=O)CO)C[C@@H]3O[C@H]1C[C@H](N)[C@H](O)[C@H](C)O1` [Doxorubicin], for which the “cardiac toxicity (background)” value in the data set on tumors was “severe cumulative and irreversible cardiac toxicity”. For the same compound, the antitumor activity result in the data set with tumors is “outstanding antitumor activity”. For the same compound, the M.T.S. came to 1 with heart [8] (setting [16]), 1.1 in the data set with heart [8] (setting [17]), 1.5 in the data set with heart [8] (setting [18]) and 2.2 in the data set with heart [8] (setting [19]). Besides, the “No. affect. hearts / No. exam. hearts” value in the data set on heart [8] (setting [16]), in the data set on heart [8] (setting [17]), in the data set with heart [8] (setting [18]) and with heart [8] (setting [19]) was 6/6 in each case.

The values are drawn from patent US5587382A, “6,9-bis[(2-aminoethyl) amino]benzo [g]isoquinoline-5,10- dione dimaleate; an aza-anthracenedione with reduced cardiotoxicity” (priority 1995, dated 1996).
